Experimental data reported in patent publication US11085056B2, “Transfection complexes and methods of using the same” (MOLECULAR TRANSFER, INC., priority 2015, dated 2021).
Several values for one entry are separate records, joined by “and”; a condition that tells them apart may be missing. Equal values may be shown once.

Experiments:
NL-1 iPS Cells = assay: Transfection of NL-1 iPS cells with DOTMA/DOPE/peptide and eGFP plasmid, fluorescent plate reader; type: cell-based; conditions: DOTMA/DOPE 1:1 plus peptide with RRRRRRRRRRRR (SEQ ID NO: 109) at n terminus; EF1Alpha eGFP plasmid; 42 hours
Description: (§1) Cells were plated to so that on the day of transfection the cells were 60-70% confluent in 96 well tissue culture plates. A DOMTA/DOPE Lipid solution (1:1 molar ratio) at 2 mg/mL in water were mixed with an equal volume of surface ligand peptides that had the nucleic acid binding moiety RRRRRRRRRRRR (SEQ ID NO: 109) covalently linked to the n terminus of each peptide during peptide synthesis. Peptides were at 2 mg/mL in water. The DOTMA/DOPE and the surface ligand peptide solution the transfection reagent was diluted 1 to 1 (v/v) in water. DOMTA/DOPE/PEPTIDE solutions were added to 0.1 mL of a plasmid DNA solution (EF1Alpha eGFP plasmid) at 5 μg/mL in OptiMEM. Lipofectamine 2000 was obtained from Life Technologies.
(§2) All solutions were at room temperature. A volume of 0.2 mL of a 5 μg/mL solution of DNA was aliquoted into each well of a non-tissue cultured treated plate. 4.0 μL of transfection reagents were added to DNA solutions respectively. The transfection reagent and DNA solution was mixed by pipetting up and down twice. Transfection complexes were formed for 10 minutes. After 10 minutes, 0.01 or 0.02 mL of the transfection complex was added to cells. HuVEC, HeLa, human adult keratinocytes, human primary adult fibroblast, and rat cortical neurons all respectively received 0.01 mL of the tramsfectopm complex. Human skeletal muscle cells, mouse C2C12 cells, Jurkat, and THP-1 cells received 0.02 mL of the transfection complex. Cells were incubated for 42 hours at 37° C. at 5% CO2. Plates were read on a fluorescent plate reader. Cells were also examined visually under a microscope to assess the extent of transfection (in terms of the percent of cells transfected) with a fluorescent microscope. Other modes of analysis, for example quantification with B-galactosidase or luciferase reports plasmids can also be used. […] Surface ligand that caused increase expression of GFP over the lipid DOTMA with no surface ligand were considered to enhance transfection or had higher % cells transfected were considered to enhance transfection. Peptides that gave greater than 2 fold enhancement are noted in bold and could be further optimized by adding different transfection enhancers or could be used with different cationic lipids or polymers.

HeLa Cells [1] = assay: Transfection of HeLa cells with DOTMA/DOPE/peptide and eGFP plasmid, fluorescent plate reader; type: cell-based; conditions: DOTMA/DOPE 1:1 plus peptide with RRRRRRRRRRRR (SEQ ID NO: 109) at n terminus; EF1Alpha eGFP plasmid; 0.01 mL complex; 42 hours
Description: as §1, §2

Jurkat Cells = assay: Transfection of Jurkat cells with DOTMA/DOPE/peptide and eGFP plasmid, fluorescent plate reader; type: cell-based; conditions: DOTMA/DOPE 1:1 plus peptide with RRRRRRRRRRRR (SEQ ID NO: 109) at n terminus; EF1Alpha eGFP plasmid; 0.02 mL complex; 42 hours
Description: as §1, §2

some examined cell types = assay: Transfection expression and % cells transfected over the no peptide control; type: cell-based; conditions: on some examined cell types
Description: as §1, §2

C2C12 Cells = assay: Transfection of C2C12 cells with DOTMA/DOPE/peptide and eGFP plasmid, fluorescent plate reader; type: cell-based, mouse; conditions: DOTMA/DOPE 1:1 plus peptide with RRRRRRRRRRRR (SEQ ID NO: 109) at n terminus; EF1Alpha eGFP plasmid; 0.02 mL complex; 42 hours
Description: as §1, §2

HuVec Cells = assay: Transfection of HuVec cells with DOTMA/DOPE/peptide and eGFP plasmid, fluorescent plate reader; type: cell-based; conditions: DOTMA/DOPE 1:1 plus peptide with RRRRRRRRRRRR (SEQ ID NO: 109) at n terminus; EF1Alpha eGFP plasmid; 0.01 mL complex; 42 hours
Description: as §1, §2

Human Fibroblast Cells = assay: Transfection of human fibroblast cells with DOTMA/DOPE/peptide and eGFP plasmid, fluorescent plate reader; type: cell-based; conditions: DOTMA/DOPE 1:1 plus peptide with RRRRRRRRRRRR (SEQ ID NO: 109) at n terminus; EF1Alpha eGFP plasmid; 0.01 mL complex; 42 hours
Description: as §1, §2

HeLa Cells [2] = assay: Transfection of HeLa cells with DOTMA/SEQ ID NO: 72/peptide compared with Lipofectamine 2000; type: cell-based; conditions: fusogenic peptide 0.1 mg/mL
Description: as §1, §2
The fusogenic peptide was added to the DOMTA/peptide formulation to achieve a final concentration of 0.1 mg/mL to see if transfection reagents were further enhanced by the addition of a fusogenic peptide and could provide higher transfection efficiency into HeLa cells and expression than the commercially available Lipofectamine 2000.

[3] = 0.1 μL of DOTMA/SEQ ID NO: 72/Peptide in well of a 96 well plate
[4] = 0.2 μL of DOTMA/SEQ ID NO: 72/Peptide in well of a 96 well plate
[5] = 0.3 μL of DOTMA/SEQ ID NO: 72/Peptide in well of a 96 well plate
[6] = 0.4 μL of DOTMA/SEQ ID NO: 72/Peptide in well of a 96 well plate

Substance	RF (Relative Fluorescence) of Transfection of NL-1 iPS Cells (NL-1 iPS Cells)	RF (Relative Fluorescence) of Transfection of HeLa Cells (HeLa Cells [1])	RF (Relative Fluorescence) of Transfection of Jurkat Cells (Jurkat Cells)	transfection expression and the % cells transfected over the no peptide control (some examined cell types)	RF (Relative Fluorescence) of Transfection of C2C12 Cells (C2C12 Cells)	RF (Relative Fluorescence) of Transfection of HuVec Cells (HuVec Cells)	RF (Relative Fluorescence) of Transfection of Human Fibroblast Cells (Human Fibroblast Cells)	RF (Relative Fluorescence), DOTMA/SEQ ID NO: 72/Peptide, HeLa Cells (HeLa Cells [2]; [3])	RF (Relative Fluorescence), DOTMA/SEQ ID NO: 72/Peptide, HeLa Cells (HeLa Cells [2]; [4])	RF (Relative Fluorescence), DOTMA/SEQ ID NO: 72/Peptide, HeLa Cells (HeLa Cells [2]; [5])	RF (Relative Fluorescence), DOTMA/SEQ ID NO: 72/Peptide, HeLa Cells (HeLa Cells [2]; [6])
107 (RRRRRRRR; Peptidic transfection agent) [compound 107]	1441	75									
205 (AASIKVAVSADR; Peptidic transfection agent) [compound 205]	13140	26368	2298	increased	2102	8309	8550				
216 (YRVRVTPKEKTGPMKE; Peptidic transfection agent) [compound 216]	19626	6181	3570	increased	1001	14693	3117				
220 (ATETTITIS; Peptidic transfection agent) [compound 220]	15892	9398	6428	increased	1470	8737	4516				
224 (KPDVRSYTITG; Peptidic transfection agent) [compound 224]	25209	5559	13170		1469	15945	5995				
234 (YEKPGSPPREVVPRPRPGV; Peptidic transfection agent) [compound 234]	14410	3867	5441		681	13956	4145				
235 (KARSFNVNQLLQD; Peptidic transfection agent) [compound 235]						26940					
236 (KNNQKSEPLIGRKKT; Peptidic transfection agent) [compound 236]	43542 and 22256	7202 and 5042		increased		14418	3630 and 3000	5993	8846	8492	7316
335 (TVFSVDQDNMLE; Peptidic transfection agent) [compound 335]	14424	26954	4567		4689	6350	8534	12866	12458	11547	9753
349 (RNIAEIIKDI; Peptidic transfection agent) [compound 349]	33103	4433	23167	increased		22907	8810				
363 (LAGSCLARFSTM; Peptidic transfection agent) [compound 363]	4189	2590	2432		1080	1383	3008				
371 (GPAGKDGEAGAQG; Peptidic transfection agent) [compound 371]	17587	5180	6093		983	10669	4584				
383 (TAG; Peptidic transfection agent) [compound 383]	21983	8012	14910		1876	20267	5896				
393 (LGTIPG; Peptidic transfection agent) [compound 393]				increased							
501 (DLGTAGSCLRRFSTM; Peptidic transfection agent) [compound 501]			12350	increased	5913		9473	23571	23993	20410	14749
502 (RNIAEIIKDI; Peptidic transfection agent) [compound 502]					2589						
